Measurements reported in the supplement of paper PMC8671470.
± gives the standard deviation of the averaged measurements.

Key:
Details in all cases: 72 h
BV-173 [1] = tested on: BV-173
Method in brief: (§1)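 Fifteen myeloid leukaemia cell lines were seeded in RPMI 1640 at a density titrated to the linear growth range. Each line went into 384-well plates with compounds acoustically pre-printed at five tenfold doses from 1 to 10,000 nM, in duplicate, and was incubated for 72 h at 37 °C with 5% CO2. Luminescent ATP viability was normalised to vehicle and to a positive control at 10 µM. The IC50 came from four-parameter log-logistic dose–response fits.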

HEL [2] = tested on: HEL
Method in brief: as §1

HL-60 [3] = tested on: HL-60
Method in brief: as §1

K-562 [4] = tested on: K-562
Method in brief: as §1

KCL-22 [5] = tested on: KCL-22
Method in brief: as §1

KG-1 [6] = tested on: KG-1
Method in brief: as §1

KU-812 = tested on: KU-812
Method in brief: as §1

LAMA-84 [7] = tested on: LAMA-84
Method in brief: as §1

ML-2 [8] = tested on: ML-2
Method in brief: as §1

MOLM-13 [9] = tested on: MOLM-13
Method in brief: as §1

MV4-11 [10] = tested on: MV4-11
Method in brief: as §1

Mono-Mac-6 = tested on: Mono-Mac-6
Method in brief: as §1

NOMO-1 = tested on: NOMO-1
Method in brief: as §1

SHI-1 [11] = tested on: SHI-1
Method in brief: as §1

THP-1 = tested on: THP-1
Method in brief: as §1

HL-60 [12] = test: cell viability (% survival relative to DMSO control); higher = less cytotoxic
Method in brief: (§2)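 HL-60 cells grown in RPMI 1640 with 10% FBS were rescreened against the full library in 384-well plates, in duplicate, at five tenfold concentrations from 1 to 10,000 nM, alongside DMSO or 100 nM of one of three metabolic inhibitors for 72 h at 37 °C, 5% CO2. Reference wells contained DMSO or 10 μM proteasome inhibitor. Viability was read with CellTiter-Glo and normalised to these reference wells, and where reported, area under the curve was taken from four-parameter log-logistic fits in drc and PharmacoGx.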

BV-173 [13] = test: cell viability (% survival relative to DMSO control, bortezomib = 0%); higher = less cytotoxic
Method in brief: (§3)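 Fifteen myeloid leukaemia cell lines (10 AML, 5 CML) were seeded at a density titrated to the linear growth range into 384-well plates pre-printed with compounds at 1, 10, 100, 1000 or 10000 nM in duplicate. Plates were incubated for 72 h at 37 °C with 5% CO2. Viability was then read by CellTiter-Glo luminescence. Each value is percent survival averaged over the duplicates, with vehicle set to 100% and a 10 µM positive control to 0%.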

HEL [14] = test: as above
Method in brief: as §3

HL-60 [15] = test: as above
Method in brief: as §3

K-562 [16] = test: as above
Method in brief: as §3

KCL-22 [17] = test: as above
Method in brief: as §3

KG-1 [18] = test: as above
Method in brief: as §3

LAMA-84 [19] = test: as above
Method in brief: as §3

ML-2 [20] = test: as above
Method in brief: as §3

MOLM-13 [21] = test: as above
Method in brief: as §3

MV4-11 [22] = test: as above
Method in brief: as §3

SHI-1 [23] = test: as above
Method in brief: as §3

HL-60 [24] = test: area under dose-response curve (viability, 1 nM-10 uM) (fraction (0-1)); higher = more sensitive
Method in brief: as §2

O=[As]O[As]=O (stereo unspecified) [Arsenic trioxide]
Details	IC50 (cell viability) [µM]
BV-173 [1]	4.7
HEL [2]	> 10
HL-60 [3]	8.69
K-562 [4]	> 10
KCL-22 [5]	> 10
KG-1 [6]	> 10
KU-812	> 10
LAMA-84 [7]	7.24
ML-2 [8]	> 10
MOLM-13 [9]	4.97
MV4-11 [10]	4.27
Mono-Mac-6	8.74
NOMO-1	> 10
SHI-1 [11]	9.09
THP-1	> 10

cell viability [%], HL-60 [12]
Details	0.001 µM	0.01 µM	0.1 µM	1 µM	10 µM
co-treatment: AZD3965 100 nM	103 ± 2.1	101.5 ± 0.8	98.7 ± 1.7	102 ± 4	82.7 ± 1.2
co-treatment: DMSO vehicle	98.8 ± 1.9	100 ± 1.3	97.29 ± 0.59	100.5 ± 0.47	96.7 ± 6.6
co-treatment: GSK2194069 100 nM	102 ± 5.6	99.1 ± 4.6	98.8 ± 2.5	99.11 ± 0.97	87.09 ± 0.7
co-treatment: pictilisib 100 nM	94.24 ± 0.0034	101 ± 4.8	93.6 ± 4.6	98.5 ± 6.7	63.4 ± 0.69

Details	area under dose-response curve, co-treatment: AZD3965 100 nM	area under dose-response curve, co-treatment: DMSO vehicle	area under dose-response curve, co-treatment: GSK2194069 100 nM	area under dose-response curve, co-treatment: pictilisib 100 nM	cell viability, 1 nM [%]	cell viability, 10 nM [%]	cell viability, 100 nM [%]	cell viability, 1000 nM [%]	cell viability, 10000 nM [%]
BV-173 [13]	–	–	–	–	96.1	97.2	105	95.5	28.4
HEL [14]	–	–	–	–	98.8	102	120	96.8	74.9
HL-60 [15]	–	–	–	–	108	105	109	96.9	55.6
HL-60 [24]	< 0.0301	< 0.0301	< 0.0301	< 0.0301	–	–	–	–	–
K-562 [16]	–	–	–	–	91.1	93.8	105	102	49.5
KCL-22 [17]	–	–	–	–	107	107	102	99	74.4
KG-1 [18]	–	–	–	–	103	106	108	97	86.4
LAMA-84 [19]	–	–	–	–	104	100	109	90.2	53.2
ML-2 [20]	–	–	–	–	109	96.4	103	94.9	76.2
MOLM-13 [21]	–	–	–	–	110	104	124	102	18.5
MV4-11 [22]	–	–	–	–	97	108	104	95.1	20.4
SHI-1 [23]	–	–	–	–	105	97.1	112	94.7	57.6

CN(C)CCNC(=O)c1cccn2c(=O)c3cc4ccccc4cc3nc12 [Bmh-21]
Details	IC50 (cell viability) [µM]
BV-173 [1]	0.293
HEL [2]	0.331
HL-60 [3]	> 10
K-562 [4]	9.11
KCL-22 [5]	0.312
KG-1 [6]	0.407
KU-812	0.479
LAMA-84 [7]	0.486
ML-2 [8]	0.314
MOLM-13 [9]	2.38
MV4-11 [10]	2.78
Mono-Mac-6	0.347
NOMO-1	0.923
SHI-1 [11]	> 10
THP-1	0.91

cell viability [%], HL-60 [12]
Details	0.001 µM	0.01 µM	0.1 µM	1 µM	10 µM
co-treatment: AZD3965 100 nM	97.56 ± 0.42	95.3 ± 3.3	101 ± 1.9	91.9 ± 6.7	48.8 ± 15
co-treatment: DMSO vehicle	101.2 ± 0.36	98.3 ± 6.6	102 ± 4.9	98.4 ± 3.1	74.2 ± 28
co-treatment: GSK2194069 100 nM	98.9 ± 6.8	102 ± 2.8	101 ± 5.3	94.5 ± 5.6	66 ± 8.9
co-treatment: pictilisib 100 nM	94.2 ± 4.5	100.6 ± 0.29	104 ± 2.9	85.7 ± 13	73.8 ± 2.8

Details	area under dose-response curve, co-treatment: AZD3965 100 nM	area under dose-response curve, co-treatment: DMSO vehicle	area under dose-response curve, co-treatment: GSK2194069 100 nM	cell viability, 1 nM [%]	cell viability, 10 nM [%]	cell viability, 100 nM [%]	cell viability, 1000 nM [%]	cell viability, 10000 nM [%]
BV-173 [13]	–	–	–	105	98.6	95.8	-0.204	-0.415
HEL [14]	–	–	–	110	93.8	93.8	8	0.459
HL-60 [15]	–	–	–	102	108	93.6	107	77.7
HL-60 [24]	0.0645	0.0352	0.0524	–	–	–	–	–
K-562 [16]	–	–	–	108	84.5	94.1	92.9	44.3
KCL-22 [17]	–	–	–	115	113	98.7	0.317	0.85
KG-1 [18]	–	–	–	104	101	104	9.79	0.81
LAMA-84 [19]	–	–	–	103	107	95.2	21.2	1.47
ML-2 [20]	–	–	–	111	106	99.4	-0.0196	-0.0121
MOLM-13 [21]	–	–	–	123	92.6	102	87.6	22.1
MV4-11 [22]	–	–	–	107	85.5	90.4	78.8	11.1
SHI-1 [23]	–	–	–	108	102	81.7	94	53.7

C=C1C(=O)O[C@H](CCCCCCCC)[C@H]1C(=O)O [C75]
Details	IC50 (cell viability) [µM]
BV-173 [1]	> 10
HEL [2]	> 10
HL-60 [3]	> 10
K-562 [4]	> 10
KCL-22 [5]	> 10
KG-1 [6]	> 10
KU-812	> 10
LAMA-84 [7]	> 10
ML-2 [8]	> 10
MOLM-13 [9]	> 10
MV4-11 [10]	> 10
Mono-Mac-6	> 10
NOMO-1	> 10
SHI-1 [11]	> 10
THP-1	> 10

cell viability [%], HL-60 [12]
Details	0.001 µM	0.01 µM	0.1 µM	1 µM	10 µM
co-treatment: AZD3965 100 nM	108 ± 5.4	91.5 ± 7.9	107 ± 2.8	97.8 ± 1.8	102 ± 7.2
co-treatment: DMSO vehicle	105 ± 8.6	99.5 ± 1.4	101.8 ± 0.69	102 ± 5.6	102 ± 4.7
co-treatment: GSK2194069 100 nM	96 ± 22	88.2 ± 8.7	102 ± 4.4	100 ± 1.4	111 ± 4
co-treatment: pictilisib 100 nM	103 ± 29	90.9 ± 20	105 ± 3.7	103 ± 4.5	98.9 ± 3.6

Details	area under dose-response curve, co-treatment: AZD3965 100 nM	area under dose-response curve, co-treatment: DMSO vehicle	area under dose-response curve, co-treatment: GSK2194069 100 nM	area under dose-response curve, co-treatment: pictilisib 100 nM	cell viability, 1 nM [%]	cell viability, 10 nM [%]	cell viability, 100 nM [%]	cell viability, 1000 nM [%]	cell viability, 10000 nM [%]
BV-173 [13]	–	–	–	–	106	94	109	107	105
HEL [14]	–	–	–	–	101	95.7	105	111	121
HL-60 [15]	–	–	–	–	89.1	80.8	106	86	120
HL-60 [24]	< 0.0301	< 0.0301	< 0.0301	< 0.0301	–	–	–	–	–
K-562 [16]	–	–	–	–	107	98.3	101	108	111
KCL-22 [17]	–	–	–	–	112	86.8	108	110	134
KG-1 [18]	–	–	–	–	102	81.1	112	115	114
LAMA-84 [19]	–	–	–	–	92.2	102	101	104	106
ML-2 [20]	–	–	–	–	115	90.1	108	110	112
MOLM-13 [21]	–	–	–	–	102	95.2	106	99.3	137
MV4-11 [22]	–	–	–	–	106	98.1	103	85.9	116
SHI-1 [23]	–	–	–	–	105	98.5	108	100	100
